These results are taken from US20200239530A1, “COMPOUNDS AND METHODS OF MODULATING PROTEIN DEGRADATION” (Vividion Therapeutics, Inc., priority 2017, published 2020).

Test [1] addresses T1, MAPK10 Mitogen-activated protein kinase 10 (Homo sapiens, UniProt P53779).
T1 construct: Cells were resuspended in cold PBS on ice and sonicated with a probe sonicator to achieve lysis; endogenous in cells
Kind of test: Cysteine liganding, probe competition. The conditions noted are these: for 100 Max / 100 ave / 500 ave / 500 Max: uniprot P53779; for 500 Max: in % (unit assumed). The class given is binding. The method in brief:
(§1)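 Read-out is loss of desthiobiotin iodoacetamide labelling at cysteines, measured on streptavidin-enriched tryptic peptides. Compound preincubation ran 1 hr at 25° C in PBS lysate holding 5 mg/ml proteome before the probe was added.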

Test [2] addresses T2, GOLGA2 Golgin subfamily A member 2 (Homo sapiens, UniProt Q08379).
T2 construct: Cells were resuspended in cold PBS on ice and sonicated with a probe sonicator to achieve lysis; endogenous in cells
T2 sequence (Q08379 1-1002): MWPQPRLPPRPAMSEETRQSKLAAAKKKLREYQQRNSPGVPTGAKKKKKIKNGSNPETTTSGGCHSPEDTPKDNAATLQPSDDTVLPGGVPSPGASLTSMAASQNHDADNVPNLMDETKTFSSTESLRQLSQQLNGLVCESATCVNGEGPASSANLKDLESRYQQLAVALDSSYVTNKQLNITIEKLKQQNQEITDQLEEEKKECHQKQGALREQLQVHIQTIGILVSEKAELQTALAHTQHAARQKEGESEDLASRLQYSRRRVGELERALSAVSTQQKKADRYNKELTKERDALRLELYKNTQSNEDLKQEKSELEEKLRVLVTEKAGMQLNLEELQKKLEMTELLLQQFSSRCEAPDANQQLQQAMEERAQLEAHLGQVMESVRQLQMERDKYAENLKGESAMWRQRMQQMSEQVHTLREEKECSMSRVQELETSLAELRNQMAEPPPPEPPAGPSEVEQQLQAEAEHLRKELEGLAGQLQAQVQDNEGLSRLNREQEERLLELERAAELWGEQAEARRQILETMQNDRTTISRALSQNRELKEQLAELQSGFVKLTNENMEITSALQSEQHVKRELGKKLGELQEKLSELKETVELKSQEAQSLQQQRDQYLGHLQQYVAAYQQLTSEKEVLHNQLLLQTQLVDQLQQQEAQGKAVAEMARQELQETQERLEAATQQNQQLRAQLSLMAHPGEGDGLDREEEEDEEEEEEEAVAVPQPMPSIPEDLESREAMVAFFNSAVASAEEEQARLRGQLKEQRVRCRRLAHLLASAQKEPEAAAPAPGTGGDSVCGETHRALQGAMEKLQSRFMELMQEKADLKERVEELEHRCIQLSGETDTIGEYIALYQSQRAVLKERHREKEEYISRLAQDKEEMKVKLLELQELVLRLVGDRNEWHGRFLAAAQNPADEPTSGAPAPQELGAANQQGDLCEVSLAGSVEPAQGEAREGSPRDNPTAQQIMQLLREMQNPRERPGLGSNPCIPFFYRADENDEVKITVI
Kind of test: Cysteine liganding, probe competition. Format: binding. The procedure, abridged:
as §1

T1 sequence (P53779 whole entry): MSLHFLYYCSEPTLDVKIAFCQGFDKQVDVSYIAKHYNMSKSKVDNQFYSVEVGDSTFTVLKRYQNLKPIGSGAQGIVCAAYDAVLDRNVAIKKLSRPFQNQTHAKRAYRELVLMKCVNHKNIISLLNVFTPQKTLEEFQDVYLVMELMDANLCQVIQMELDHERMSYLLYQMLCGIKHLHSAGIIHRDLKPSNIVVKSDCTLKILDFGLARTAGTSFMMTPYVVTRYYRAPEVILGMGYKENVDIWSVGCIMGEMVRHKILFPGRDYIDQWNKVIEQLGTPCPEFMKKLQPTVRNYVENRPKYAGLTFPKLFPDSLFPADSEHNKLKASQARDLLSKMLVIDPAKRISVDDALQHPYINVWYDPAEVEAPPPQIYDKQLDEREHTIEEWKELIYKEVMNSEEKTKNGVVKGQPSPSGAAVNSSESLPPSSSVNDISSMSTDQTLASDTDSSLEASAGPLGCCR

Consider `COc1ccc2c(c1)CCCN2C(=O)CCl` [KB02], for which the Liganded entry in test [1] (MAPK10 Res# 283, uniprot P53779) is “YES”. Moreover, in test [1], the “100 Max” value came to 44.42, the 100 ave is recorded as 26.11, the 500 ave is on record as 76.89 and the “500 Max” value was 78.63. For the same compound, the Liganded entry in test [2] (GOLGA2 Res# 794, uniprot Q08379) was “YES”.

With `O=C(CCl)Nc1cc(C(F)(F)F)cc(C(F)(F)F)c1` [KBO3], in test [1], the “100 Max” value came out at 17.22, the 100 ave turned out to be 12.33, the 500 ave stood at 40.875 and the “500 Max” value is reported as 44.06. Moreover, in test [2] (uniprot Q08379), the “100 Max” value was 1.85, the 100 ave stood at 1.85, the “500 Max” value worked out at 54.38 and the 500 ave is reported as 54.38.
